Measurements taken from patent US9351983B2, “Use of glycerophosphoinositols for the treatment of septic shock” (CONSIGLIO NAZIONALE DELLE RICERCHE, priority 2012, dated 2016).

Tests used:
[1] = test system: LPS-stimulated nuclear translocation of NF-κB; assay: Electromobility shift assay of nuclear NF-κB in LPS-stimulated monocytes; type: cell-based, human; settings: 50 μM, 0.1 μg/ml LPS for 1 h
Procedure: FIG. 7—Glycerophosphoinositols inhibit LPS-stimulated nuclear translocation of NF-κB. Human monocytes purified from the peripheral blood of healthy donors were incubated at 37° C. for 20 min without (−) or with (+) two different concentrations (300 μM and 50 μM) of GroPIns or GroPIns4P, and then for further 1 h in the absence (−) and presence (+) of 0.1 μg/ml LPS from E. coli. At the end of the incubation, the cells were lysed and the nuclear extracts were incubated with radiolabelled oligonucleotide probes that contained the NF-κB binding site. Protein-DNA complexes were separated using 6% non-denaturating acrylamide gels and visualised by autoradiography. The results shown are representative of 4 different experiments performed with cells from different donors.
Cells were harvested by centrifugation at 300×g for 5 min and lysed in ice-cold cell lysis buffer using an Ultraturrax homogeniser (Janke & Kunke, Germany, 4 strokes of 20 s each, at medium speed). The cell nuclei were pelleted by centrifugation (800×g, 5 min, at 4° C.) and recovered. […] After centrifugation (4000×g, for 10 min, at 4° C.), the supernatant was recovered and the protein concentrations in the nuclear extracts were determined using a commercially available protein assay kit (Bio-Rad Laboratories, UK). […]

[2] = test system: LPS-activated tissue-factor (TF) activity in human monocytes; assay: Pro-coagulant activity of tissue factor (one-stage clotting time) in LPS-stimulated human monocytes; type: cell-based; settings: for time at which inhibition of LPS-mediated TF activity is evident: 0.1 μg/ml LPS, 5 h versus 24 h (FIG. 2); for tissue-factor activity (pro-coagulant activity, one-stage clotting time): 50 μM to 300 μM, then 0.1 μg/ml LPS for 5 h and 24 h (FIG. 2)
Procedure: FIG. 2—The glycerophosphoinositols inhibit LPS-activated tissue-factor activity in human monocytes. Human monocytes were purified from peripheral blood of healthy donors and incubated at 37° C. for 20 min without or with different concentrations (from 50 μM to 300 μM) GroPIns or GroPIns4P, and for a further 5 h and 24 h in the absence and in presence of 0.1 μg/ml LPS from E. coli. […] Data are means (±SD) of three independent experiments performed with cells from different donors. Asterisks indicate statistically significant differences (*p=0.015; **p<0.005; ***p=0.0003) versus their respective controls. As shown, pro-coagulant activity was not detectable in untreated monocytes, and it was induced in a time-dependent manner by LPS stimulation.
The glycerophosphoinositol, differently from the PLA2IVα inhibitor, inhibits LPS-activated tissue-factor activity in human monocytes. Human monocytes were purified from peripheral blood of two healthy donors (experiment I and II) and pre-incubated at 37° C. for 20 min without (black line) or with 300 μM glycerophosphoinositol (GroPIns, blue line) or 0.5 μM PLA2IVα inhibitor (pyrrophenone, Pf, red line), and for a further 24 h in the absence or presence of increasing concentrations of LPS from E. coli (endotoxin).
The glycerophosphoinositol inhibits in a dose-dependent manner LPS-activated tissue-factor activity in human monocytes. Human monocytes were purified from peripheral blood of three healthy donors (experiments III, IV and V) and pre-incubated at 37° C. for 20 min without or with increasing concentrations of glycerophosphoinositol (GroPIns) and for a further 24 h in the absence or presence of 10 ng/ml of LPS from E. coli (endotoxin). […] The two insets in Exp IV and V show the pro-coagulant activity of tissue factor, assessed in cells stimulated by 10 ng/ml of endotoxin, with (filled bars) or without (dotted bars) 20 min pre-incubation at 37° C., in absence (Control) or in presence of 300 μM GroPIns.
The glycerophosphoinositols inhibit LPS-activated tissue-factor activity in human monocytes.
Human monocytes were obtained from whole blood collected from healthy donors (informed consent was obtained) and anticoagulated with 0.1 vol 3.8% sodium citrate/0.15 mol/l NaCl. The leukocytes were sedimented at 180×g for 15 min at 10° C. The sedimented cells were diluted to the initial volume with citrate-saline and sedimented again. This step was repeated to minimise platelet contamination. The cells were then layered onto Lymphoprep™, and centrifuged at 700×g for 20 min at 20° C. The ring of mononuclear cells was collected and sedimented at 620×g for 7 min at 8° C. The pellet was resuspended in citrate-saline and the cells were washed twice. Monocytes were purified using a discontinuous Percoll™ density gradient; the mononuclear cell preparation was resuspended in RPMI-1640 medium supplemented with 10% heat-inactivated foetal calf serum, and was layered onto a 46% isosmotic Percoll™ solution. After centrifugation at 20° C. for 30 min at 550×g, the cells at the RPMI-1640 medium/Percoll™ interface were collected and sedimented at 620×g. The pellet was resuspended in citrate-saline and the cells were washed twice. The final monocyte preparation was then resuspended in serum-free RPMI-1640 at the concentration required.
The pro-coagulant activity of tissue factor (TF activity) was measured in cell lysates according to one-stage clotting time [as reported in (Evangelista et al., Thromb Haemost. 2005; 94, 568-577)]. One hundred μl of cell lysates were added to 100 μl of 37° C. prewarmed normal human plasma. After 30 s, 100 μl 20 mM CaCl2 were added to the mixture and the clotting time was determined using a KC4A Amellung Coagulometer (Mascia Brunelli, Milan, Italy). The data were then converted in arbitrary units by interpolation with a standard curve generated with serial dilutions of human recombinant thromboplastin (Hemoliance, Instrumentation Laboratory).

[3] = 300 μM, endotoxin 10 ng/ml for 24 h (FIG. 12)

Row | Compound | reduction of NF-κB nuclear translocation [1] | time at which inhibition of LPS-mediated TF activity is evident [2] | tissue-factor activity (pro-coagulant activity, one-stage clotting time) ([2]; 20 min pre-incubation) | TF activity [2, 3] | efficacy in reducing TF activity compared with GroPIns [2, 3] | TF activity ([2]; 300 μM, 20 min pre-incubation, increasing concentrations of endotoxin for 24 h (FIG. 10)) | TF activity ([2]; increasing concentrations of compound, endotoxin 10 ng/ml for 24 h (FIG. 11))
1 | O=P(O)(O)OC1[C@@H](O)[C@H](O)C(OP(=O)(O)OCC(O)CO)[C@@H](O)[C@H]1O (some centres unmarked) [GroPIns4P, glycerophosphoinositol 4-phosphate] | not at 50 μM | already effective at shorter times (5 h) | dose-dependent reduction in tissue-factor activity | reduce TF activity | higher efficacy than GroPIns |  | 
2 | O=P(O)(OCC(O)CO)OC1C(O)C(O)C(O)C(O)C1O (centres unmarked) [GroPIns, glycerophosphoinositol] | not at 50 μM | mainly evident at long times (24 h) | dose-dependent reduction in tissue-factor activity | reduce TF activity |  | reduces TF activity | dose-dependently reduces TF activity
